How the values were obtained:
[1] = system: Sommerweizen Sorte Moskovskaya 35; experiment: Field trial of gametocidal activity, spring wheat; format: in vivo, Weizen; conditions: 1% aqueous emulsion; for Anzahl von Körnern der Ähre bei freier Bestäubung / Anzahl von Körnern der Ähre im Isolator / percent sterility at 10000 g/ha: V. period; for percent sterility at 10000 g/ha: read-out: Prozentsatz der Sterilität
[2] = system: Tetraploider Roggen Sorte Ukrainskaya tetra; experiment: Field trial of gametocidal activity, tetraploid rye Ukrainskaya tetra; format: in vivo; conditions: 1% aqueous emulsion, 10 kg/ha
[3] = system: Hirse Sorte Mironovskoe 94; experiment: Field trial of gametocidal activity, millet Mironovskoe 94; format: in vivo; conditions: 1% aqueous emulsion, 10 kg/ha; for Anzahl von Körnern der Rispe bei freier Bestäubung / Anzahl von Körnern der Rispe im Isolator / percent pollen sterility at 10000 g/ha: V. or VI. period; for percent pollen sterility at 10000 g/ha: read-out: Prozentsatz der Sterilität; for response vs control in vivo at 10000 g/ha: control = 100, read-out: Prozentsatz des Ansetzens bei freier Bestäubung
[4] = in vivo; conditions: mouse, LD50, weisse Mäuse
[5] = system: Diploider Roggen Sorte Chulpan; experiment: Field trial of gametocidal activity, diploid rye Chulpan; format: in vivo; conditions: single compounds, 1% aqueous emulsion, 10 kg/ha; for Anzahl von Körnern der Ähre bei freier Bestäubung / Anzahl von Körnern der Ähre im Isolator / percent sterility at 10000 g/ha: Chulpan, V. or VI. period; for percent sterility at 10000 g/ha: read-out: Prozentsatz der Sterilität; for response vs control in vivo at 10000 g/ha: read-out: Prozentsatz des Ansetzens bei freier Bestäubung, Chulpan, control = 100
Source text: (§1) Bei Weizen und Tritikale werden Einzelisolatoren verwendet.
Pflanzen von diploidem Roggen Sorte Chulpan werden in der V. oder VI.
Der Verbrauch an Sterilisationsmitteln beträgt 10 kg/ha.

[6] = system: Hirse Sorte K-9693 Kormovoe 1; experiment: Field trial of gametocidal activity, millet K-9693 Kormovoe 1; conditions: 1% aqueous emulsion, 10 kg/ha
[7] = system: Tritikale Sorte PRAG I09; experiment: Field trial of gametocidal activity, triticale; format: in vivo; conditions: 1% aqueous emulsion, 12 kg/ha; for Prozentsatz des Ansetzens bei freier Bestäubung: control = 100
Source text: as §1
Pflanzen von Tritikale Sorte PRAG I09 werden in der V. und VI.
Der Verbrauch an Sterilisationsmittel beträgt 12 kg/ha.

[8] = system: Tetraploider Roggen Sorte Belta; experiment: Field trial of gametocidal activity, tetraploid rye Belta; format: in vivo; conditions: 1% aqueous emulsion, 10 kg/ha
[9] = system: Diploider Roggen Sorte Gibrid 1864/74; experiment: Field trial of gametocidal activity, diploid rye Gibrid 1864/74; conditions: 1% aqueous emulsion, 10 kg/ha
[10] = system: Winterweizens Sorte Mironovskaya 808; experiment: Field trial of gametocidal activity (anther sterilisation), winter wheat; format: in vivo, Weizen; conditions: 2% aqueous emulsion, 20 kg/ha; for response vs control in vivo at 20000 g/ha: control = 100, read-out: Prozentsatz des Ansetzens bei freier Bestäubung
[11] = system: Diploider Roggen Sorte Gibrid 340/65; experiment: Field trial of gametocidal activity, diploid rye Gibrid 340/65; conditions: Gibrid 340/65 (text: 312/65), 1% aqueous emulsion, 10 kg/ha
[12] = system: Tetraploider Roggen Sorte Gibrid 67; experiment: Field trial of gametocidal activity, tetraploid rye Gibrid 67; format: in vivo; conditions: 1% aqueous emulsion, 10 kg/ha, V. or VI. period
Source text: as §1
Pflanzen von tetraploidem Roggen Sorte Gibrid 67 werden in der V. oder VI.

[13] = system: Sonnenblume Linie VK 119; experiment: Field trial of pollen sterilisation, sunflower line VK 119; conditions: 0,2% aqueous emulsion, 1,2 kg/ha
[14] = system: Sonnenblume Sorte Peredovik; experiment: Field trial of pollen sterilisation, sunflower Peredovik; format: in vivo; conditions: 0,2% aqueous emulsion, 1,2 kg/ke (so in the source)
Source text: Pflanzen der Sonnenblume Sorte Peredovik werden in der V. oder VI.
Der Verbrauch an Sterilisationsmittel beträgt 1,2 kg/ke.

[15] = control = 100, read-out: Prozentsatz des Ansetzens bei freier Bestäubung
[16] = V. or VI. period of organogenesis

| Structure (SMILES) | Anzahl von Körnern der Ähre bei freier Bestäubung ([1]; 10 kg/ha) | Anzahl von Körnern der Ähre im Isolator ([1]; 10 kg/ha) | percent sterility at 10000 g/ha ([1]; 10 kg/ha) [%] | Anzahl von Körnern der Rispe bei freier Bestäubung [3] | Anzahl von Körnern der Rispe im Isolator [3] | percent pollen sterility at 10000 g/ha [3] [%] | response vs control in vivo at 10000 g/ha [3] [%] | Anzahl von Körnern der Ähre bei freier Bestäubung [5] | Anzahl von Körnern der Ähre im Isolator [5] | percent sterility at 10000 g/ha [5] [%] | response vs control in vivo at 10000 g/ha [5] [%] | Anzahl von Körnern der Ähre bei freier Bestäubung ([7]; V. and VI. period) | Anzahl von Körnern der Ähre im Isolator ([7]; V. and VI. period) | Prozentsatz des Ansetzens bei freier Bestäubung [7] | Anzahl von Körnern der Ähre bei freier Bestäubung [10, 16] | Anzahl von Körnern der Ähre im Isolator [10, 16] | response vs control in vivo at 20000 g/ha [10] [%] | further results |
| --- | --- | --- | --- | --- | --- | --- | --- | --- | --- | --- | --- | --- | --- | --- | --- | --- | --- | --- |
| O=C(O)c1cc(Br)ccc1O [Beispiel 18, Äthanolaminsalz der 5-Bromsalizylsäure] | 27,9 | 1,8 | 93.4 | 320,7 | 0,0 | 100 | 84.5 | – | – | – | – | – | – | – | – | – | – | response vs control in vivo at 10000 g/ha ([1]; 10 kg/ha, control = 100, read-out: Prozentsatz des Ansetzens bei freier Bestäubung): 102%; Prozentsatz der Sterilität ([2]; V. or VI. period): 99,8%; Prozentsatz des Ansetzens bei freier Bestäubung ([2]; control = 100): 94,7% |
| OCCOc1ccc(F)cc1 [Beispiel 2] | – | – | – | 311,4 | 0,0 | 100 | 82 | 48,2 | 0,0 | 100 | 85 | 62,3 | 0,0 | 90,3% | 27,4 | 0,0 | 67.7 | LD50 [4]: 350 mg/kg; Anzahl von Körnern der Rispe bei freier Bestäubung ([6]; V. or VI. period): 128,7; Anzahl von Körnern der Rispe im Isolator ([6]; V. or VI. period): 0,0; Prozentsatz der Sterilität ([6]; V. or VI. period): 100%; Prozentsatz des Ansetzens bei freier Bestäubung ([6]; control = 100): 87,7%; Anzahl von Körnern der Ähre im Isolator ([8]; V. or VI. period): 0,0; response vs control in vivo at 10000 g/ha [8, 15]: 92.8%; Anzahl von Körnern der Ähre bei freier Bestäubung ([9]; V. period): 42,0; Anzahl von Körnern der Ähre im Isolator ([9]; V. period): 0,0; Prozentsatz der Sterilität ([9]; V. period): 100%; Prozentsatz des Ansetzens bei freier Bestäubung ([9]; control = 100): 87,9% |
| CCC(CO)(CO)CO [Beispiel 39, Etriol] | – | – | – | 355,1 | 0,0 | 100 | 93.6 | – | – | – | – | 68,2 | 0,7 | 98,8% | – | – | – | Anzahl von Körnern der Ähre bei freier Bestäubung ([11]; V. and VI. periods): 53,2; Anzahl von Körnern der Ähre im Isolator ([11]; V. and VI. periods): 1,6; Prozentsatz der Sterilität ([11]; V. and VI. periods): 96,7%; Prozentsatz des Ansetzens bei freier Bestäubung ([11]; control = 100): 98,5%; Prozentsatz der Sterilität ([7]; V. and VI. period): 99,0% |
| O=C(O)c1ccccc1O [Beispiel 62, Äthanolaminsalz der Salizylsäure] | – | – | – | – | – | – | – | – | – | – | – | – | – | – | – | – | – | Anzahl von Körnern der Ähre bei freier Bestäubung [12]: 40,8; Anzahl von Körnern der Ähre im Isolator [12]: 0,0 |
| OCC(O)COc1ccc(Cl)cc1 (stereo not drawn) [Beispiel 3, 3-(4'-Chlorphenoxy)-propandiol-1,2] | 25,8 | 0,0 | 100 | 284,7 | 0,0 | 100 | 75 | 47,2 | 0,0 | 100 | 83.2 | – | 0,0 | 89,0% | 28,6 | 0,6 | 70.6 | response vs control in vivo [1, 15]: 93.8%; Anzahl von Körnern der Ähre bei freier Bestäubung ([2]; V. or VI. period): 40,7; Anzahl von Körnern der Ähre im Isolator ([2]; V. or VI. period): 0,0; percent sterility at 20000 g/ha ([10]; V. or VI. period of organogenesis, read-out: Prozentsatz der Sterilität): 98.4%; Ansetzen von Achänen bei freier Bestäubung in % [13]: 84,4%; Ansetzen von Achänen im Isolator bei der Bestäubung mit dem Pollengemisch in % [13]: 0,0%; Pollensterilität in % [13]: 100%; Pollensterilität in % [14]: 100%; Ansetzen von Achänen bei freier Bestäubung in % ([14]; V. or VI. period): 81,7%; Ansetzen von Achänen im Isolator bei der Bestäubung mit dem Pollengemisch in % ([14]; V. or VI. period): 0,0% |

From EP0359821A1, “METHOD OF STERILIZING PLANT ANTHERS” (priority 1988, dated 1989)
